Results as given in PMC4744544 (Analytical biochemistry, 2015).

Legend:
[1] = test system: Purine Nucleoside Phosphorylase (PNPase; EC 2.4.2.1); assay: XOD-coupled absorbance at […] nm, initial velocities, Michaelis-Menten fit; format: biochemical; settings: 100 mM Tris-HCl pH 8; 5 mM KH2PO4; PNPase 50 mU/mL; XOD 500 mU/mL as coupling enzyme
[2] = target: T1, Dgt (Escherichia coli, UniProt P15723); assay: discontinuous HPLC of deoxyguanosine, Michaelis-Menten fit; format: biochemical; settings: 20 mM Tris-HCl pH 8.0; 5 mM MgCl2; 30 °C; Dgt 0.2 nM hexamer
T1 sequence (P15723 2-505): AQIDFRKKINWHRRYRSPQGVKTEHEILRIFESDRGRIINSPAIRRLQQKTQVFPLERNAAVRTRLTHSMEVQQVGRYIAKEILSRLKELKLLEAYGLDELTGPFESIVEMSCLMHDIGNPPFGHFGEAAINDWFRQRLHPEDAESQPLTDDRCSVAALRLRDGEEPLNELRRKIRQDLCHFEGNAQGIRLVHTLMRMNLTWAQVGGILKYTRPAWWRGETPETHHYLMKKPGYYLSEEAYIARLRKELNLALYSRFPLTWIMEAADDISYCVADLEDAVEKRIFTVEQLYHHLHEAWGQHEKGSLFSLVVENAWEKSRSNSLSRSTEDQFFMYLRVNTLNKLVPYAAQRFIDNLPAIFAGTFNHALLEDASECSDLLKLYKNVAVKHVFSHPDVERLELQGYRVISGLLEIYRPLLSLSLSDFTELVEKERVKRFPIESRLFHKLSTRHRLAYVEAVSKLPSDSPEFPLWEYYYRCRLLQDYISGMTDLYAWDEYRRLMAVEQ

Km [1] | SMILES | Km [2]
110 ± 13 µM | Nc1nc2c(ncn2[C@H]2C[C@H](O)[C@@H](CO)O2)c(=O)[nH]1 [deoxyguanosine] | –
– | Nc1nc2c(ncn2[C@H]2C[C@H](O)[C@@H](COP(=O)(O)OP(=O)(O)OP(=O)(O)O)O2)c(=O)[nH]1 [dGTP] | the best fit to the data is a simple Michaelis-Menten curve
